Experimental data published in Sander's compilation of Henry's law constants (doi:10.1021/ie980743h).

Legend:
[1] = Henry solubility constant Hcp at 298.15 K (mol/(m3 Pa)); conditions: reference: Dohnal and Hovorka (1999)
[2] = Henry solubility constant Hcp at 293 K (mol/(m3 Pa)); conditions: reference: Dohnal and Hovorka (1999)

Structure (SMILES) | Henry solubility constant Hcp [1] | Henry solubility constant Hcp at 293 K [2]
Cc1ccc(C)cc1 [1,4-dimethylbenzene] | 0.0015 | 
Cc1ccccc1 [methylbenzene] | 0.0016 | 
ClCC(Cl)Cl [1,1,2-trichloroethane] |  | 0.015
Cc1cccc(C)c1 [1,3-dimethylbenzene] | 0.0015 | 
c1ccccc1 [benzene] | 0.0018 | 
ClC(Cl)=C(Cl)Cl [tetrachloroethene] |  | 0.00086
CCC(C)(C)OC [2-methoxy-2-methylbutane] | 0.01 | 
CC(Cl)CCl (centres undefined) [1,2-dichloropropane] |  | 0.0044
Cc1ccccc1C [1,2-dimethylbenzene] | 0.0021 | 
C=Cc1ccccc1 [ethenylbenzene] | 0.0034 | 
CC(C)OC(C)C [diisopropyl ether] | 0.0047 | 
BrCBr [dibromomethane] |  | 0.014
Clc1ccccc1 [chlorobenzene] |  | 0.0036
CCCCCl [1-chlorobutane] |  | 0.00067
